Measured values from patent publication US8552006B2, “Modulators of cystic fibrosis transmembrane conductance regulator” (Vertex Pharmaceuticals Incorporated, priority 2007, dated 2013).

Target: T1, ΔF508-CFTR (Homo sapiens, UniProt P13569, DEL508-508)
T1 construct: expressed in transfected cells
Test: Membrane potential optical assay for potentiators of ΔF508-CFTR (double-addition HTS, FLIPR III)
Type: cell-based
Conditions: for Emax: 100% efficacy is the maximum response obtained with 4-methyl-2-(5-phenyl-1H-pyrazol-3-yl)phenol; for EC50: temperature-corrected ΔF508 CFTR NIH 3T3 cells, potentiation with forskolin activation
From the text: Membrane Potential Optical Methods for Assaying ΔF508-CFTR Modulation Properties of Compounds
The assay utilizes fluorescent voltage sensing dyes to measure changes in membrane potential using a fluorescent plate reader (e.g., FLIPR III, Molecular Devices, Inc.) as a readout for increase in functional ΔF508-CFTR in NIH 3T3 cells. The driving force for the response is the creation of a chloride ion gradient in conjunction with channel activation by a single liquid addition step after the cells have previously been treated with compounds and subsequently loaded with a voltage sensing dye.
To identify potentiators of ΔF508-CFTR, a double-addition HTS assay format was developed. This HTS assay utilizes fluorescent voltage sensing dyes to measure changes in membrane potential on the FLIPR III as a measurement for increase in gating (conductance) of ΔF508 CFTR in temperature-corrected ΔF508 CFTR NIH 3T3 cells. The driving force for the response is a Cl^− ion gradient in conjunction with channel activation with forskolin in a single liquid addition step using a fluoresecent plate reader such as FLIPR III after the cells have previously been treated with potentiator compounds (or DMSO vehicle control) and subsequently loaded with a redistribution dye.
Bath Solution #1: (in mM) NaCl 160, KCl 4.5, CaCl2 2, MgCl2 1, HEPES 10, pH 7.4 with NaOH.
Chloride-Free Bath Solution: Chloride Salts in Bath Solution #1 are Substituted with Gluconate Salts.
NIH3T3 mouse fibroblasts stably expressing ΔF508-CFTR are used for optical measurements of membrane potential. The cells are maintained at 37° C. in 5% CO2 and 90% humidity in Dulbecco's modified Eagle's medium supplemented with 2 mM glutamine, 10% fetal bovine serum, 1×NEAA, β-ME, 1× pen/strep, and 25 mM HEPES in 175 cm^2 culture flasks. For all optical assays, the cells were seeded at ˜20,000/well in 384-well matrigel-coated plates and cultured for 2 hrs at 37° C. before culturing at 27° C. for 24 hrs. for the potentiator assay. For the correction assays, the cells are cultured at 27° C. or 37° C. with and without compounds for 16-24 hours. Electrophysiological Assays for assaying ΔF508-CFTR modulation properties of compounds.

T1 sequence (P13569 with tags, fused parts or gaps DEL508-508): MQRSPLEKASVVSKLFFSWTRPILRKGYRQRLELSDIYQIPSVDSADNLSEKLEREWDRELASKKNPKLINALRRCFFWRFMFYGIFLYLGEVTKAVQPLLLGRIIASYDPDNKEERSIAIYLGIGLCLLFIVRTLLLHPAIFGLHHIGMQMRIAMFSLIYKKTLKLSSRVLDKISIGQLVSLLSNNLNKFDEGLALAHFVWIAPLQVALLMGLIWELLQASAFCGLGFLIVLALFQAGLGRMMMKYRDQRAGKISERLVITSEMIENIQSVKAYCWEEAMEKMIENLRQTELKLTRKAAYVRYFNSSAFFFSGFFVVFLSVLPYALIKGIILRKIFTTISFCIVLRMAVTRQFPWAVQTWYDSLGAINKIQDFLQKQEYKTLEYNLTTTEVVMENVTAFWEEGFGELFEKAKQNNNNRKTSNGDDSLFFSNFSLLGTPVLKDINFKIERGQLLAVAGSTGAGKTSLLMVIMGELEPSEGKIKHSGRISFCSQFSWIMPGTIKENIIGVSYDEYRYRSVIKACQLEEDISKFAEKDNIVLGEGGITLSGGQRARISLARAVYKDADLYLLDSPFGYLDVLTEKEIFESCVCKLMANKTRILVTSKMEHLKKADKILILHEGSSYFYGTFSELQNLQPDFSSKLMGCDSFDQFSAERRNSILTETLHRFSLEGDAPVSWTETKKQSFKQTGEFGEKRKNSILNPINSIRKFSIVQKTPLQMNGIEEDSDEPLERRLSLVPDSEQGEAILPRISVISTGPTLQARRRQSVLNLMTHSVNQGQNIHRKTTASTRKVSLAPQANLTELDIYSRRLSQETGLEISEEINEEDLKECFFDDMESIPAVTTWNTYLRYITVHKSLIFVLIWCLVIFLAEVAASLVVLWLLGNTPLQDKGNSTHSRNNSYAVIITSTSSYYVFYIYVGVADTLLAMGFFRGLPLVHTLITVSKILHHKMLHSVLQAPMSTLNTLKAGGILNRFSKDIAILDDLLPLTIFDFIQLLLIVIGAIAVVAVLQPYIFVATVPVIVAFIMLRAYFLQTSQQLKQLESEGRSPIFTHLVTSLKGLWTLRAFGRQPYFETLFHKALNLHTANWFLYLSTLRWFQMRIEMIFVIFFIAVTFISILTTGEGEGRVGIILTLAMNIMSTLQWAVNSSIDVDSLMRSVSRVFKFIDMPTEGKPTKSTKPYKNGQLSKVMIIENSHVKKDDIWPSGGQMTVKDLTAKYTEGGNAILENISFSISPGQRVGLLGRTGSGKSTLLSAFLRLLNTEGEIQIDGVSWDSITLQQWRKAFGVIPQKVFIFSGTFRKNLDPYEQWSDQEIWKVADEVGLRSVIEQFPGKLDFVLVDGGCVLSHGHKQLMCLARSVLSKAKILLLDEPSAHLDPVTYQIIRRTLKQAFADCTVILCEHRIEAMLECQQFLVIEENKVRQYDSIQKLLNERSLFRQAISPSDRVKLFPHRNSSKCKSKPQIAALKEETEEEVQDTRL

Structure (SMILES)	Emax [%]	EC50 [µM]
CC(C)(C)c1cc2cc[nH]c2cc1NC(=O)c1c[nH]c2ccnn2c1=O [Compound 6]	25 to 100	< 5
CCc1cc2[nH]cc(C(=O)Nc3ccc4c(C(C)(C)C)c[nH]c4c3)c(=O)n2c1 [Compound 9]	25 to 100	< 5
Cc1cc2[nH]cc(C(=O)Nc3cc(O)c(C(C)(C)C)cc3C(C)(C)C)c(=O)n2n1 [Compound 1]	25 to 100	< 5
O=C(Nc1cc2[nH]ccc2cc1C(F)(F)F)c1c[nH]c2ccnn2c1=O [Compound 8]	25 to 100	5 to 20
O=C(Nc1ccc(N2CCCC2)cc1C(F)(F)F)c1c[nH]c2ccnn2c1=O [Compound 13]	25 to 100	5 to 20
CCc1cc2[nH]cc(C(=O)Nc3cc(O)c(C(C)(C)C)cc3C(C)(C)C)c(=O)n2c1 [Compound 14, N-(2,4-di-tert-butyl-5-hydroxyphenyl)-7-ethyl-4-oxo-1,4-dihydropyrrolo[1,2-a]pyrimidine-3-carboxamide]	25 to 100	< 5
CC(C)(C)c1cc(C(C)(C)C)c(NC(=O)c2c[nH]c3ccnn3c2=O)cc1O [Compound 5, N-(2,4-di-tert-butyl-5-hydroxyphenyl)-7-oxo-4,7-dihydropyrazolo[1,5-a]pyrimidine-6-carboxamide]	25 to 100	< 5
Cc1cc2[nH]cc(C(=O)Nc3cc(O)c(C4CCCC4)cc3C#N)c(=O)n2c1 [Compound 19]	25 to 100	< 5
CCc1cc2[nH]cc(C(=O)Nc3cc4[nH]ccc4cc3C(F)(F)F)c(=O)n2c1 [Compound 11]	25 to 100	< 5
CC(C)(C)c1c[nH]c2cc(NC(=O)c3c[nH]c4ccnn4c3=O)ccc12 [Compound 2]	> 100	< 5

Further lines, results first:

Emax [%]	EC50 [µM]	Structure (SMILES)
25 to 100	< 5	Cc1cc2[nH]cc(C(=O)Nc3ccc(N4CCC(C)(C)C4)cc3C(F)(F)F)c(=O)n2c1 [Compound 3]
25 to 100	< 5	Cc1cc2[nH]cc(C(=O)Nc3cc(O)c(C4(C)CCCCC4)cc3F)c(=O)n2c1 [Compound 15]
25 to 100	< 5	CCc1cc2[nH]cc(C(=O)Nc3ccc4c(C(F)(F)F)c[nH]c4c3)c(=O)n2c1 [Compound 7]
25 to 100	< 5	Cc1cc2[nH]cc(C(=O)Nc3cc(O)c(C4CCCC4)cc3C)c(=O)n2c1 [Compound 18]
25 to 100	< 5	Cc1cc2[nH]cc(C(=O)Nc3cc(O)c(C4CCCC4)cc3C(F)(F)F)c(=O)n2c1 [Compound 16]
25 to 100	< 5	Cc1cc2[nH]cc(C(=O)Nc3ccc4c(C(F)(F)F)c[nH]c4c3)c(=O)n2c1 [Compound 17]
25 to 100	> 20	Cc1cc2[nH]cc(C(=O)Nc3ccc4cc[nH]c4c3)c(=O)n2n1 [Compound 10]
25 to 100	< 5	Cc1cc2[nH]cc(C(=O)Nc3cc4[nH]ccc4cc3C(C)(C)C)c(=O)n2n1 [Compound 4]
25 to 100	5 to 20	CCc1cc2[nH]cc(C(=O)Nc3cc(O)c(C4(C)CCCCC4)cc3F)c(=O)n2c1 [Compound 12]
